Test results published in paper PMC5427467, “Isolation and characterization of phthalates from Brevibacterium mcbrellneri that cause cytotoxicity and cell cycle arrest” (EXCLI Journal, 2017).
In brackets after ≈: the same amount, converted by molar mass. Where two headings read alike, the source gives them in different places.

Tests used:
E. coli = test system: E. coli; parameters: method as in Roy et al., 2006 [30]; conditions: DBP isolated from Streptomyces albidoflavus, ref Roy et al., 2006 [30]; cited from earlier work
S. typhi = test system: S. typhi; parameters: method as in Roy et al., 2006 [30]; conditions: DBP isolated from Streptomyces albidoflavus, ref Roy et al., 2006 [30]; cited from earlier work
A549 cells = test system: A549 cells; parameters: method as in Hsu et al., 2011 [14]; conditions: ref Hsu et al., 2011 [14]; cited from earlier work
[1] = test system: Staphylococcus aureus (MTCC 96); experiment: Anti-bacterial activity, MIC in 96-well broth dilution; type: cell-based; conditions: MTCC96, S. aureus, 24 hrs at 37 °C
Method: (§1) The antibacterial evaluation was carried out against Gram positive bacteria; Staphylococcus epidermidis (MTCC 435), Bacillus subtilis (MTCC 441), Staphylococcus aureus (MTCC 96), and Gram negative bacteria; Pseudomonas aeruginosa (MTCC 741), E. coli (MTCC 443) and Klebsiella pneumoniae (MTCC 618). Brevibacterium mcbrellneri MTCC (3913) was chosen for isolation of biologically active compounds.
(§2) The minimum inhibitory concentrations (MIC) were recorded against Staphylococcus aureus, Bacillus subtilis, Staphylococcus epidermidis, Pseudomonas aeruginosa, Escherichia coli and Klebsiella pneumoniae. In brief 96-well plates were distributed with Nutrient broth and the compounds in different concentrations (150 μg/mL to 0.5μg/mL). 50 μL microbial suspensions were seeded into each well (0.5 MacFarland standards) to make the final volume of 200 μl with culture broth. The plates were incubated for 24 hrs at 37 °C. The lowest concentration, at which the visible inhibition was recorded, was considered as MIC. Streptomycin and Benzylpenicillin were used as positive controls.

[2] = test system: Bacillus subtilis (MTCC 441); experiment: as above; type: cell-based; conditions: MTCC441, B. subtilis, 24 hrs at 37 °C
Method: as §1, §2

[3] = test system: Pseudomonas aeruginosa (MTCC 741); experiment: as above; type: cell-based; conditions: MTCC741, P. aeroginosa, 24 hrs at 37 °C
Method: as §1, §2

[4] = test system: Staphylococcus epidermidis (MTCC 435); experiment: as above; type: cell-based; conditions: MTCC435, S. epidermidis, 24 hrs at 37 °C
Method: as §1, §2

[5] = test system: Klebsiella pneumoniae (MTCC 618); experiment: as above; type: cell-based; conditions: MTCC618, K. pneumoniae, 24 hrs at 37 °C
Method: as §1, §2

E. coli (MTCC 443) = experiment: as above; type: cell-based; conditions: Escherichia coli, MTCC443, 24 hrs at 37 °C
Method: as §1, §2

B. subtilis [6] = test system: B. subtilis; parameters: method as in Roy et al., 2006 [30]; conditions: DBP isolated from Streptomyces albidoflavus, ref Roy et al., 2006 [30]; cited from earlier work
A. niger = test system: A. niger; parameters: method as in Roy et al., 2006 [30]; conditions: DBP isolated from Streptomyces albidoflavus, ref Roy et al., 2006 [30]; cited from earlier work
[7] = test system: 4th instar larvae of Aedes aegypti; experiment: Larvicidal bioassay/Dose-response bioassay; type: in vivo; conditions: 4th instar Aedes aegypti larvae, 24 h exposure
Method: The early 4th instar larvae of Aedes aegypti were selected for evaluation of mosquito larvicidal activity. The larvae were collected and fed with a mixture powdered yeast and dog biscuits. These were maintained in insectaries till the emergence of adults. The colony was photo periodically maintained at 14 L: 10 D (hours) and with relative humidity 80 ± 5 % at 28 °C (Kumar et al., 2010[16]). Adult mosquitoes were fed with blood for egg maturation. The eggs were allowed to hatch in an enamel bowl lined with Whatman filter paper filled with distilled water. The pupae formed were separated and transferred to insectary for the emergence of adults (da Silva et al., 2016[6]).
Based on the preliminary screening results, different concentrations ranging from 25 to 200 ppm were prepared for DEHP and 25 to 1 ppm for DBP were used. The compounds were subjected to dose response bioassay against 4th instar larvae of Aedes aegypti larvae. Dead larvae were counted after 24 h of exposure, and the percentage mortality was reported from the average of triplicates (Govindarajan et al., 2016[9]).

Curvularia pallescens = test system: Curvularia pallescens; parameters: method as in Roy et al., 2006 [30]; conditions: DBP isolated from Streptomyces albidoflavus, ref Roy et al., 2006 [30]; cited from earlier work
DU-145 = experiment: MTT cell proliferation assay; type: cell-based; conditions: Homo sapiens; DU-145, MTT, 24 hrs
Method: (§3) The MTT cell proliferation was assessed against the cell lines HeLa (ATCC; CCL-2), A549 (ATCC; CCL-185), MCF-7 (ATCC; HTB-22), DU145 (ATCC; HTB-81), CHO (ATCC; CCL-61), HEK293 (ATCC; CRL-1573), NIH3T3 (ATCC; CRL-1658) were procured from the American Type Culture Collection (ATCC). These cell lines were grown and maintained in Dulbecco's modified Eagle's medium with non-essential amino acids, 10 % fetal bovine serum (FBS), 1 mM sodium pyruvate, in humidified atmosphere containing 5 % CO2 at 37 °C (Esumi et al., 2004[7]).
(§4) The cell lines were seeded in 96-well plates in 200 µL aliquots. The test compounds in different concentrations were added and incubated at 37 °C for 24 hrs. Doxorubicin was used as positive control (Prata-Sena et al., 2016[28]).

CHO = experiment: MTT cell proliferation assay; type: cell-based; conditions: Cricetulus griseus, 24 hrs
Method: as §3, §4

MCF-7 = experiment: MTT cell proliferation assay; type: cell-based; conditions: Homo sapiens, MCF7; MCF-7, MTT, 24 hrs
Method: as §3, §4

HEK 293 = experiment: MTT cell proliferation assay; type: cell-based; conditions: Homo sapiens, HEK293; HEK 293, MTT, 24 hrs
Method: as §3, §4

S. cerevisiae = test system: S. cerevisiae; parameters: method as in Roy et al., 2006 [30]; conditions: DBP isolated from Streptomyces albidoflavus, ref Roy et al., 2006 [30]; cited from earlier work
[8] = parameters: method as in Habib and Karim, 2009 [10]; conditions: DEHP isolated from Calotropis gigantean; ref Habib and Karim, 2009 [10]; cited from earlier work
HaCaT cells = test system: HaCaT cells; parameters: method as in Peropadre et al., 2015 [26]; conditions: ref Peropadre et al., 2015 [26]; cited from earlier work
B. subtilis [9] = test system: B. subtilis; parameters: method as in Habib and Karim, 2009 [10]; conditions: DEHP isolated from Calotropis gigantean, ref Habib and Karim, 2009 [10]; cited from earlier work
Sarcina lutea = test system: Sarcina lutea; parameters: method as in Habib and Karim, 2009 [10]; conditions: DEHP isolated from Calotropis gigantean, ref Habib and Karim, 2009 [10]; cited from earlier work
HePG2 cells = test system: HePG2 cells; parameters: method as in Lyu et al., 2016 [19]; conditions: ref Lyu et al., 2016 [19]; cited from earlier work

Compound	MIC [1]	MIC [2]	MIC [3]	MIC [4]	MIC [5]	MIC (E. coli (MTCC 443))	LC50 [7]	IC50 (DU-145)	IC50 (CHO)	IC50 (MCF-7)	IC50 (HEK 293)	further results
CCCCOC(=O)c1ccccc1C(=O)OCCCC [DBP, dibutyl phthalate]	37.5 µg/mL (≈ 135 µM)	18.8 µg/mL (≈ 67.4 µM)	37.5 µg/mL (≈ 135 µM)	18.8 µg/mL (≈ 67.4 µM)	75 µg/mL (≈ 269 µM)	37.5 µg/mL (≈ 135 µM)	1.62 ppm	31.2 ± 8.7 µg/mL (≈ 112 µM)	36 ± 8.6 µg/mL (≈ 129 µM)	32.4 ± 3.6 µg/mL (≈ 117 µM)	19.8 ± 10 µg/mL (≈ 71 µM)	MIC (E. coli): 53 µg/mL (≈ 190 µM); MIC (S. typhi): 76 µg/mL (≈ 273 µM); cytotoxic activity (A549 cells): Cytotoxic activity; MIC (B. subtilis [6]): 84 µg/mL (≈ 302 µM); MIC (A. niger): 98 µg/mL (≈ 352 µM); mortality at 25 ppm ([7]; at 25 ppm): 100%; MIC (Curvularia pallescens): 117 µg/mL (≈ 420 µM); MIC (S. cerevisiae): 92 µg/mL (≈ 331 µM)
COc1cccc2c1C(=O)c1c(O)c3c(c(O)c1C2=O)C[C@@](O)(C(=O)CO)C[C@@H]3O[C@H]1C[C@H](N)[C@H](O)[C@H](C)O1 [doxorubicin, Doxorubicin, reference compound]											21.8 ± 8.8 µg/mL (≈ 40.1 µM)	
CCCCC(CC)COC(=O)c1ccccc1C(=O)OCC(CC)CCCC (centres unmarked) [DEHP, di-(2-ethylhexyl) phthalate]	18.8 µg/mL (≈ 48 µM)	37.5 µg/mL (≈ 96 µM)	75 µg/mL (≈ 192 µM)	9.37 µg/mL (≈ 24 µM)	75 µg/mL (≈ 192 µM)	37.5 µg/mL (≈ 96 µM)	47.65 ppm	33.5 ± 7.7 µg/mL (≈ 85.7 µM)	193 ± 5.4 µg/mL (≈ 494 µM)	46.55 ± 0.1 µg/mL (≈ 119 µM)		antifungal property [8]: negligible; cell cycle effect (HaCaT cells): cell cycle arrest at G1 phase; MIC (B. subtilis [9]): 32 µg/mL (≈ 81.9 µM); MIC (Sarcina lutea): 32 µg/mL (≈ 81.9 µM); apoptosis / cell cycle effect (HePG2 cells): apoptosis without cell cycle arrest
